Results from ChEMBL document CHEMBL3526083, “Prediction of relative in vivo metabolite exposure from in vitro data using two model drugs: dextromethorphan and omeprazole” (Drug Metab Dispos, 2012).

What was measured:
Type in all cases: ADME
[1] = target: T1, UDP-glucuronosyltransferase 1A6 (Homo sapiens, UniProt P19224); test: Drug metabolism assessed as recombinat UGT1A6 (unknown origin) -mediated dextrophan-O-glucuronide formation
T1 sequence (P19224 whole entry): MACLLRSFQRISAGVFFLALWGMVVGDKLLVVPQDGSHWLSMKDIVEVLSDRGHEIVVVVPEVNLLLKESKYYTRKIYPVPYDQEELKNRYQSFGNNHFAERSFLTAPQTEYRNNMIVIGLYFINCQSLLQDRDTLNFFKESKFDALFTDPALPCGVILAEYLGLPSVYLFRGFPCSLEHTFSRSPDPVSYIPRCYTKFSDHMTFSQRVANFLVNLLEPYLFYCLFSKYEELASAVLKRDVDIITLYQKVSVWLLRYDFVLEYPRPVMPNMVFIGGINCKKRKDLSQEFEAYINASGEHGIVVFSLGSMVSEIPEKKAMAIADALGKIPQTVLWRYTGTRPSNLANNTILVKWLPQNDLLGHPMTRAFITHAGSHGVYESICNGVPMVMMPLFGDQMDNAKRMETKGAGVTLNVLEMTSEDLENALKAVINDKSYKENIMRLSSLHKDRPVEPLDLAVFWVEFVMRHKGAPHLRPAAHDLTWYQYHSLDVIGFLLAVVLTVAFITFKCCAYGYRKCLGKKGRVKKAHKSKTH

[2] = target: T2, UDP-glucuronosyltransferase 2B7 (Homo sapiens, UniProt P16662); test: Drug metabolism assessed as recombinat UGT2B7 (unknown origin) -mediated dextrophan-O-glucuronide formation
T2 sequence (P16662 whole entry): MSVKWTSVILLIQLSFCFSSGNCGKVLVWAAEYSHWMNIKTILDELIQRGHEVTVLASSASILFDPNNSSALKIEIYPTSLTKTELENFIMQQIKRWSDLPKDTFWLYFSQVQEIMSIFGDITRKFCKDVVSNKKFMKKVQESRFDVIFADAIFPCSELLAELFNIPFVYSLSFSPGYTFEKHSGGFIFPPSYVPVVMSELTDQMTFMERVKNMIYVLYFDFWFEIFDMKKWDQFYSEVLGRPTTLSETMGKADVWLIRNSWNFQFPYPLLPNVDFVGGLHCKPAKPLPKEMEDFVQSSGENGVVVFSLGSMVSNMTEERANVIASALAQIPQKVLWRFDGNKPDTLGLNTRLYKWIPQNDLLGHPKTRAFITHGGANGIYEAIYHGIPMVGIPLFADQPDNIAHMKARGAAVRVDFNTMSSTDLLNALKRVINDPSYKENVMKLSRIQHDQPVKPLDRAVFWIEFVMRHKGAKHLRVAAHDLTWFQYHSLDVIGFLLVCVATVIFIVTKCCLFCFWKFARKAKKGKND

[3] = target: T3, UDP-glucuronosyltransferase 2B17 (Homo sapiens, UniProt O75795); test: Drug metabolism assessed as recombinat UGT2B17 (unknown origin) -mediated dextrophan-O-glucuronide formation
T3 sequence (O75795 whole entry): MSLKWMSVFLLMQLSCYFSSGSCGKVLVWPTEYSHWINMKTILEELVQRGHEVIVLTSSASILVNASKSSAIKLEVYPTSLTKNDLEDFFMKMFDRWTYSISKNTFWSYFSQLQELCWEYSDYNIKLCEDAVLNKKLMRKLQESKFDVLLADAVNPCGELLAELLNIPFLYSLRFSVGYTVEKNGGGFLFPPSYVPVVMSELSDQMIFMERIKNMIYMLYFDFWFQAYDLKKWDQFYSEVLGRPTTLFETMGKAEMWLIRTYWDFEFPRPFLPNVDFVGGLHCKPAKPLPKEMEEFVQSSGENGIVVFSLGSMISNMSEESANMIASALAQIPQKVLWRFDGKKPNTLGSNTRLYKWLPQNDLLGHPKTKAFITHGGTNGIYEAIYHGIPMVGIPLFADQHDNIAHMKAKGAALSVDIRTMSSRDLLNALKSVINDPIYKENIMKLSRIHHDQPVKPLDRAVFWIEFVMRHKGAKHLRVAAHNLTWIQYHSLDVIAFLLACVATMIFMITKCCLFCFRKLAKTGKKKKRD

In the case of CN1CC[C@@]23CCCC[C@@H]2[C@@H]1Cc1ccc(O)cc13 [DEXTRORPHAN], the Drug metabolism [1] is reported as “metabolite_not_detected”, the Drug metabolism [2] is reported as “metabolite_detected” and the Drug metabolism [3] is reported as “metabolite_detected”.
